One block for each compound: values may come before it.
Key:
Lxrα = target: T1, Lxrα (Homo sapiens, UniProt Q13133); assay: Lxrα luciferase reporter assay in SN4741 neural cells; format: cell-based, mouse; conditions: for Lxrα activation, luciferase activity (fold activation): 10 μM, 24 h
T1 construct: expressed in transfected cells; host or cells: SN4741 mouse neuronal cell line
T1 sequence (Q13133 1-447): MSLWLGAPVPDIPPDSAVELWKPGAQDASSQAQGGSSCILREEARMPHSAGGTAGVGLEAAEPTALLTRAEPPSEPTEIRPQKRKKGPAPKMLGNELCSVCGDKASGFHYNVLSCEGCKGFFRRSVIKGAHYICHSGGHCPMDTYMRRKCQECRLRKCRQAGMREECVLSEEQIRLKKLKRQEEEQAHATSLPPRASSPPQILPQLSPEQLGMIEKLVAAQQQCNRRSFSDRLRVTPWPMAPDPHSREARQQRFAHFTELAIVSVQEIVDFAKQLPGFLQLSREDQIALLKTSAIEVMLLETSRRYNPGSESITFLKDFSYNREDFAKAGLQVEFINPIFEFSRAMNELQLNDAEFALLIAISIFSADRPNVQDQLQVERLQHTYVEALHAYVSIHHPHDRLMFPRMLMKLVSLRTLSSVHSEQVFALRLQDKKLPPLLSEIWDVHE
Text: (§1) Luciferase Reporter Assay.

Lxrβ = target: T2, Lxrβ (Homo sapiens, UniProt P55055); assay: Lxrβ luciferase reporter assay in SN4741 neural cells; format: cell-based, mouse; conditions: SN4741 cells, 10 μM, 24 h
T2 construct: expressed in transfected cells; host or cells: SN4741 mouse neuronal cell line
T2 sequence (P55055 1-460): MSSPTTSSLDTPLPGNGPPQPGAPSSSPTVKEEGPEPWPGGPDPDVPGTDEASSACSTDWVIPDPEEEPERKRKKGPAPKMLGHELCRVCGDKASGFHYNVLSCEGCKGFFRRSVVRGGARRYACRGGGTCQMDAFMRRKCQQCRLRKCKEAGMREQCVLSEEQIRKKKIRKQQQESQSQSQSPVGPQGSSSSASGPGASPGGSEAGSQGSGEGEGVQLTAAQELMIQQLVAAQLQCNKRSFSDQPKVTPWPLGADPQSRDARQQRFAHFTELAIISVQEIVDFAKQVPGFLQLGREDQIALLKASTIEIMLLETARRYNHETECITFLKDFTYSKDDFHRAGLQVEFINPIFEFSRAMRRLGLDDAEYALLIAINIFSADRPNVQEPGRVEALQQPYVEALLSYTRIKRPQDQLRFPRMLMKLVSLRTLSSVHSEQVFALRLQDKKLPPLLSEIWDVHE
Text: as §1

Islet-1 = Islet-1 expression in Tg[Isl1:GFP] zebrafish embryos; format: in vivo; conditions: 10 μM, embryos 48 hpf
Experimental: Quantitative PCR, Total RNA was extracted from SN4741. cells and zebrafish treated with the compounds of interest using the RNeasy Mini Kit (Qiagen), 1 μg was treated with RQ1 RNase-free DNase (Promega) and reverse transcribed using SuperScript II Reverse Transcriptase (invitrogen) and random primers (invitrogen) (RT+reaction). Parallel reactions without reverse transcriptase enzyme were done as a control (RT−reaction), and Sybergreen real-time quantitative PCR assays were performed. Expression levels were obtained by normalization with the Value of the housekeeping gene encoding actin obtained for every sample in parallel assays.
(§2) Zebrafish Strain and Maintenance Zebrafish were raised on a 14/10 h day/night cycle and were kept at 28.5 ° C. Islet-1:GFP transgenic embryos were obtained via natural spawning and staged in hours or days post fertilization (hpf and dpt) according to Kimmel et al). Embryos older than 24 hpf were treated with 0.03% phenylthiourea (PTU) to inhibit pigmentation. MO injections were performed using splice site specific zebrafish lxi MO MO injected embryos were immediately dechorionated and transferred to a 96 well plate and exposed to dimethyl sulfoxide (DMSO) treated or ligand treated medium. Compound Exposure. Islet-1:GFP embryos were collected by natural mating and immediately (at 1 cell stage) dechorionated and transferred to a 96 well plate. Each of the compounds tested were obtained as 10 mM stock and diluted in embryo medium to a final concentration of 10 μM, and 200 μL was added to each well. DMSO or propan-2-ol treated embryo medium was taken as control. Ligand solutions were replaced every 12 h with fresh ligand solution prepared in PTU treated embryo medium. Embryos were collected at 48 hpf, fixed for 4 h at room temperature with 4% paraformaldehyde and then washed and kept in PBST. Immunocytochemistry was performed using an anti-GFP antibody and fluorescence was viewed and photographed using a Zeiss Axioplan compound microscope and a Zeiss Axiocam digital camera.

[1] = system: Islet1+ oculomotor neurons; assay: Islet1+ cells in mouse E11.5 brain primary cultures; format: cell-based; conditions: wild type cultures
Experimental: Primary Brain Cultures. Brains from E11.5 mice were manually dissected, plated on poly-D-lysine (150,000 cells/cm^2) and grown in serum-free N2 media consisting of 1:1 mixture of F12 and DMEM with 10 ng/mL insulin, 100 μg/mL apo-transferrin, 100 μM putrescine, 20 nM progesterone, 30 nM selenium, 6 mg/mL glucose, and 1 mg/mL BSA. Cells were treated for 3 days in vitro (DIV) with the compounds of interest, fixed with 4% PFA and processed for staining using appropriate antibodies.
Antibodies and Detection Procedures. Cells were fixed in 4% PFA, washed in PBS and blocked in 5% normal goat serum/PBS for 1 h at room temperature. Primary antibodies were diluted in PBS (pH 7.4), 0.3% Triton X-100, 1% BSA and incubations were carried out overnight at +4° C. or at room temperature for 2 h. The antibodies used were anti-:BrdU (1:400; Abeam), Islet-1 (1:100: Developmental Studies Hybridoma Bank), cleaved caspase-3 (Aspt 75) (1:100; Cell Signaling Technology), tyrosine hydroxylase (TH; 1:1000; Pel-Freeze) GABA (1:1,000; Sigma), Bm3a (1:250; Millipore), Nkx6.1 (1:200; Novus Biologicals), choline acetyltransferase (ChAT; 1:500; Millipore) and appropriate secondary antibodies (Jackson ImmunoResearch or Alexa). Cells positive for the corresponding marker were counted directly at the microscope at a magnification of 20×. Cells were counted in every well, in eight consecutive fields (going from one side of the well to the other, passing through the center), in three different wells per experiment and in three different experiments per condition. Random pictures of the wells were taken for every condition to document the result, and representative pictures were subsequently selected to represent the quantitative data. Photos were acquired with a Zeiss Axioplan microscope and a Hamamatsu camera C4742-95 using the Openlab software.

zebrafish embryos = assay: Survival of transgenic zebrafish embryos on compound exposure; format: in vivo
Experimental: as §2

Compound: CC(C)CCC[C@@H](C)[C@H]1CC[C@H]2[C@@H]3CC[C@H]4CC(=O)CC[C@]4(C)[C@H]3CC[C@]12C [5α-cholestan-3-one]
Lxrα activation, luciferase activity (fold activation) (Lxrα): None of these compounds showed significant activity

Compound: CC(C)CCC[C@@H](C)[C@H]1CC[C@H]2[C@@H]3CC[C@H]4C[C@@H](O)CC[C@]4(C)[C@H]3CC[C@]12C [5α-cholestan-3β-ol]
Lxrα activation, luciferase activity (fold activation) (Lxrα): None of these compounds showed significant activity

Compound: CC(C)CCC[C@@H](C)[C@H]1CC[C@H]2[C@@H]3[C@H](O)CC4=CC(=O)CC[C@]4(C)[C@H]3C[C@H](O)[C@]12C [7α,12α-diHCO, 7α,12α-Dihydroxycholest-4-en-3-one]
Lxrα activation, luciferase activity (fold activation) (Lxrα): None of these compounds showed significant activity

Compound: CC(CO)CCC[C@@H](C)[C@H]1CC[C@H]2[C@@H]3[C@H](O)C=C4C[C@@H](O)CC[C@]4(C)[C@H]3CC[C@]12C (stereo partly drawn) [7α,26-diHC, 7α,26-dihydroxycholesterol]
Lxrβ activation, luciferase activity (fold activation) (Lxrβ): none of which was found to show significant activity
Lxrα activation, luciferase activity (fold activation) (Lxrα): none of which was found to show significant activity

Compound: CC(CO)CCC[C@@H](C)[C@H]1CC[C@H]2[C@@H]3[C@H](O)CC4=CC(=O)CC[C@]4(C)[C@H]3CC[C@]12C (stereo partly drawn) [7α,26-diHCO, 7α,26-dihydroxycholest-4-en-3-one]
Lxrβ activation, luciferase activity (fold activation) (Lxrβ): none of which was found to show significant activity
Lxrα activation, luciferase activity (fold activation) (Lxrα): none of which was found to show significant activity

Compound: CC(C)CCC[C@@H](C)[C@H]1CC[C@H]2[C@@H]3[C@H](O)CC4=CC(=O)CC[C@]4(C)[C@H]3CC[C@]12C [7α-HCO, 7α-Hydroxycholest-4-en-3-one]
Lxrα activation, luciferase activity (fold activation) (Lxrα): None of these compounds showed significant activity

Compound: CC(CCC[C@@H](C)[C@H]1CC[C@H]2[C@@H]3[C@H](O)CC4=CC(=O)CC[C@]4(C)[C@H]3CC[C@]12C)C(=O)O (stereo partly drawn) [7αH,3O-CA, 7α-hydroxy-3-oxocholest-4-en-26-oic acid]
Lxrβ activation, luciferase activity (fold activation) (Lxrβ): none of which was found to show significant activity
Lxrα activation, luciferase activity (fold activation) (Lxrα): none of which was found to show significant activity
Islet-GFP expression (Islet-1): failed to regulate Islet-GFP expression

Compound: CC(CCC[C@@H](C)[C@H]1CC[C@H]2[C@@H]3[C@@H](O)CC4=CC(=O)CC[C@]4(C)[C@H]3CC[C@]12C)C(=O)O (stereo partly drawn) [7βH,3O-CA, 7β-hydroxy-3-oxocholest-4-en-26-oic acid]
Lxrβ activation, luciferase activity (fold activation) (Lxrβ): none of which was found to show significant activity
Lxrα activation, luciferase activity (fold activation) (Lxrα): none of which was found to show significant activity

Compound: CC(C)CC[C@@H](O)[C@@H](C)[C@H]1CC[C@H]2[C@@H]3CC=C4C[C@@H](O)CC[C@]4(C)[C@H]3CC[C@]12C [22R-HC, 22R-hydroxycholesterol, reference compound]
Number of Islet1+ cells [1]: does not show an effect towards Islet1+ cells
Lxr luciferase activity with addition of the Lxr antagonist GGPP (Lxrα; 10 μM metabolite + 10 μM GGPP): similarly blocked

Lxrβ activation, luciferase activity (fold activation) (Lxrβ): activate Lxr
Lxrα activation, luciferase activity (fold activation) (Lxrα): activate Lxr
Compound: CC(C)[C@@H](O)CC[C@@H](C)[C@H]1CC[C@H]2[C@@H]3CC=C4C[C@@H](O)CC[C@]4(C)[C@H]3CC[C@]12C [24S-HC, cholest-5-ene-3β,24S-diol]

Compound: C[C@@H](CO)CCC[C@@H](C)[C@H]1CC[C@H]2[C@@H]3CC=C4C[C@@H](O)CC[C@]4(C)[C@H]3CC[C@]12C [26-HC, cholest-(25R)-5-en-3β,26-diol]
Number of Islet1+ cells [1]: no effect on the number of Islet1+ cells
Lxrβ activation, luciferase activity (fold activation) (Lxrβ): had no a significant effect
Lxrα activation, luciferase activity (fold activation) (Lxrα): had no a significant effect

Compound: C[C@H](CCC(=O)O)[C@H]1CC[C@H]2[C@@H]3[C@H](O)C[C@@H]4C[C@H](O)CC[C@]4(C)[C@H]3CC[C@]12C [CDCA, chenodeoxycholic acid, reference compound]
Toxic effect on survival of the fish (zebrafish embryos): had a deleterious toxic effect which impaired the survival of the fish

Compound: CC(C)CCC[C@@H](C)[C@H]1CC[C@H]2[C@@H]3CCC4=CC(=O)CC[C@]4(C)[C@H]3CC[C@]12C [cholest-4-en-3-one]
Lxrα activation, luciferase activity (fold activation) (Lxrα): None of these compounds showed significant activity

Compound: CC(C)CCC[C@@H](C)[C@H]1CC[C@H]2[C@@H]3C=CC4=CC(=O)CC[C@]4(C)[C@H]3CC[C@]12C [cholesta-4,6-dien-3-one]
Lxrα activation, luciferase activity (fold activation) (Lxrα): None of these compounds showed significant activity
